# Assay results as given in patent publication US7423054B2, “Therapeutic pyrazolo[3,4-b]pyridines and indazoles” (Warner Lambert Company LLC, priority 2004, dated 2008).
# Counter-ions that a name gives are not always drawn.
# Experiments:
# [1] = biological target: T1, human serotonin transporter (hSERT) (Homo sapiens, UniProt P31645); assay: hSERT receptor binding ([125I]-RTI-55 displacement, membranes of transfected HEK-293 cells); settings: HEK-293 membranes, Ki from IC50 by Cheng-Prusoff, read-out: SERT Ki
# T1 construct: expressed in transfected cells; host or cells: HEK-293 cells (membrane preparation)
# Description: (§1) The ability of the compounds of the present invention to inhibit a norepinephrine transporter and/or a serotonin transporter can be determined using conventional radioligand receptor transport assays. The receptors can be heterologously expressed in cell lines and experiments conducted in membrane preparations from the cell lines that express a norepinephrine transporter and/or a serotonin transporter.
# (§2) Cell pastes of HEK-293 cells transfected with a human serotonin transporter cDNA were prepared. The cell pastes were resuspended in 400 to 700 ml of Krebs-HEPES assay buffer (25 mM HEPES, 122 mM NaCl, 3 mM KCl, 1.2 mM MgSO4, 1.3 mM CaCl2, and 11 mM glucose, pH 7.4) with a Polytron homogenizer at Setting 7 for 30 seconds. Aliquots of membranes (˜2.5 mg/ml protein) were stored in liquid nitrogen until used.
# Assays were set up in FlashPlates pre-coated with 0.1% PEI in a total volume of 250 μl containing: test compound (10^−5M to 10^−12M), cell membranes, and 50 pM [^125I]-RTI-55 (Perkin Elmer, NEX-272; specific activity 2200 Ci/mmol). The reaction was incubated and gently agitated for 90 minutes at room temperature, and terminated by removal of assay volume. Plates were covered, and bound [^125I]-RTI-55 was determined using a Wallac Trilux Beta Plate Counter. Test compounds were run in duplicate, and specific binding was defined as the difference between binding in the presence and absence of 10 μM citalopram.
# Excel and GraphPad Prism software were used for data calculation and analysis. IC50 values were converted to Ki values using the Cheng-Prusoff equation. The Ki values (nM) for the hSERT are reported below in Table 11: […]
# [2] = biological target: T2, human norepinephrine transporter (hNET) (Homo sapiens, UniProt P23975); assay: hNET receptor binding ([125I]-RTI-55 displacement, membranes of transfected HEK-293 cells); settings: HEK-293 membranes, Ki from IC50 by Cheng-Prusoff, read-out: NET Ki
# T2 construct: expressed in transfected cells; host or cells: HEK-293 cells (membrane preparation)
# Text: as §1
# as §2, with “norepinephrine” for “serotonin”, “setting” for “Setting”, “(5” for “(˜2.5”
# The binding assay was set up in Beckman deep-well polypropylene plates with a total volume of 250 μl containing: test compound (10^−5M to 10^−12M), cell membranes, and 50 pM [^125I]-RTI-55 (Perkin Elmer, NEX-272; specific activity 2200 Ci/mmol). The reaction was incubated by gentle agitation for 90 minutes at room temperature and was terminated by filtration through Whatman GF/C filter plates using a Brandel 96-well plate harvester. Scintillation fluid (100 μl) was added to each well, and bound [^125I]-RTI-55 was determined using a Wallac Trilux Beta Plate Counter. Test compounds were run in duplicate, and specific binding was defined as the difference between binding in the presence and absence of 10 μM desipramine.
# Excel and GraphPad Prism software were used for data calculation and analysis. IC50 values were converted to Ki values using the Cheng-Prusoff equation. The Ki values (nM) for the hNET are reported below in Table 11.
# T1 sequence (P31645 whole entry): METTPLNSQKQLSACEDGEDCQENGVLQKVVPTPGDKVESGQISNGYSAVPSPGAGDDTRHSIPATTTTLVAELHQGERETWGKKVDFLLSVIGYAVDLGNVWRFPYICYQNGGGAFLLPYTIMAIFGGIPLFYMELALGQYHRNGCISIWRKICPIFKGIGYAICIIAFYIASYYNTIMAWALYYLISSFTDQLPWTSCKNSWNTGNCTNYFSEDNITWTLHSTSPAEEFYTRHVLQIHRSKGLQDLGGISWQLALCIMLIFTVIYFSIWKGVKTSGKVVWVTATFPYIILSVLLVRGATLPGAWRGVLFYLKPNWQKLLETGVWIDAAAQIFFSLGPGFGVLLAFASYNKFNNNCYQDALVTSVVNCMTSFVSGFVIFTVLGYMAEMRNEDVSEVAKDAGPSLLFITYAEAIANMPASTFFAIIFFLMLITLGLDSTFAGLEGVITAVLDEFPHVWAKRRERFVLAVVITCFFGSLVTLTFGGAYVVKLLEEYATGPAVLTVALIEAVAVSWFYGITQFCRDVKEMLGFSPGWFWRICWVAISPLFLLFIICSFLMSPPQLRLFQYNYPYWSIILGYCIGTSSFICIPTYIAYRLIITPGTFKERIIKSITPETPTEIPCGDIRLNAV
# T2 sequence (P23975 whole entry): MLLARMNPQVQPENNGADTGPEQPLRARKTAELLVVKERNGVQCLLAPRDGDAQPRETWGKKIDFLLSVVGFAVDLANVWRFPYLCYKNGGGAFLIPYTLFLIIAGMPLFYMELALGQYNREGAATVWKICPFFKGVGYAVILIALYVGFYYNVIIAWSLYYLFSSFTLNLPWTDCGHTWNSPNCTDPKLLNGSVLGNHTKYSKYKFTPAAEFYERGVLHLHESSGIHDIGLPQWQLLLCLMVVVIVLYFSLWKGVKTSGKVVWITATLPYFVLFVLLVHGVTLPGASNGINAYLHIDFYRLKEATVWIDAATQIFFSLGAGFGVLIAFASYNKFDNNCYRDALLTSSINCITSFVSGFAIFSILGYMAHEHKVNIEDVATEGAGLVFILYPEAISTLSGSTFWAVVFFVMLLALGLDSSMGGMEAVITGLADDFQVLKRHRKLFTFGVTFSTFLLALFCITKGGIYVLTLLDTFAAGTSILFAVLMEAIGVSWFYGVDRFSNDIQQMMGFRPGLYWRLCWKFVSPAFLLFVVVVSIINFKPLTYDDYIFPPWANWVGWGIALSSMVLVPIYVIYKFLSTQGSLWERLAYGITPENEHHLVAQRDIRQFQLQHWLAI
Ki [1] [nM],Ki [2] [nM],Compound
191,49.3,"Fc1ccc(-n2nc(OC3CCNCC3)c3c(F)cccc32)cc1 [Example 83, 4-Fluoro-1-(4-fluoro-phenyl)-3-(piperidin-4-yloxy)-1H-indazole hydrochloride]"
487,38.1,"Fc1ccc(-n2nc(OC[C@H]3CCCNC3)c3c(F)cccc32)cc1 [Example 84, (S)-4-Fluoro-1-(4-fluoro-phenyl)-3-(piperidin-3-ylmethoxy)-1H-indazole hydrochloride]"
1010,12.5,"Fc1ccccc1-n1nc(OC[C@H]2CCCNC2)c2c(F)cccc21 [Example 85, (S)-4-Fluoro-1-(2-fluoro-phenyl)-3-(piperidin-3-ylmethoxy)-1H-indazole hydrochloride]"
101,114,"Fc1cc2c(OCC3CCCNC3)nn(-c3ccccc3)c2cc1F (stereo not shown) [Example 86, 5,6-Difluoro-1-phenyl-3-(piperidin-3-ylmethoxy)-1H-indazole hydrochloride]"
57,197,"Fc1cc2c(OC3CCNCC3)nn(-c3ccccc3)c2cc1F [Example 87, 5,6-Difluoro-1-phenyl-3-(piperidin-4-yloxy)-1H-indazole hydrochloride]"
88.1,16.3,"Fc1ccc(-n2nc(OC3CCNCC3)c3c(F)cccc32)c(F)c1 [Example 88, 1-(2,4-Difluoro-phenyl)-4-fluoro-3-(piperidin-4-yloxy)-1H-indazole hydrochloride]"
403,22.4,"Fc1ccc(-n2nc(OC[C@H]3CCCNC3)c3c(F)cccc32)c(F)c1 [Example 89, (S)-1-(2,4-Difluoro-phenyl)-4-fluoro-3-(piperidin-3-ylmethoxy)-1H-indazole hydrochloride]"
142,10.2,"Fc1ccc(F)c(-n2nc(OC3CCNCC3)c3c(F)cccc32)c1 [Example 90, 1-(2,5-Difluoro-phenyl)-4-fluoro-3-(piperidin-4-yloxy)-1H-indazole hydrochloride]"
610,7.88,"Fc1ccc(F)c(-n2nc(OC[C@H]3CCCNC3)c3c(F)cccc32)c1 [Example 91, (S)-1-(2,5-Difluoro-phenyl)-4-fluoro-3-(piperidin-3-ylmethoxy)-1H-indazole hydrochloride]"
126,28.5,"Fc1ccc(-n2nc(OC[C@@H]3CCNC3)c3c(F)cccc32)c(F)c1 [Example 92, (R)-1-(2,4-Difluoro-phenyl)-4-fluoro-3-(pyrrolidin-3-ylmethoxy)-1H-indazole hydrochloride]"
224,16.4,"Fc1ccc(F)c(-n2nc(OC[C@@H]3CCNC3)c3c(F)cccc32)c1 [Example 93, (R)-1-(2,5-Difluoro-phenyl)-4-fluoro-3-(pyrrolidin-3-ylmethoxy)-1H-indazole hydrochloride]"
2850,40.2,"Fc1ccc(-n2nc(OC[C@@H]3CNCCO3)c3c(F)cccc32)c(F)c1 [Example 94, (S)-1-(2,4-Difluoro-phenyl)-4-fluoro-3-(morpholin-2-ylmethoxy)-1H-indazole hydrochloride]"
3470,5.47,"Fc1ccc(F)c(-n2nc(OC[C@@H]3CNCCO3)c3c(F)cccc32)c1 [Example 95, (S)-1-(2,5-Difluoro-phenyl)-4-fluoro-3-(morpholin-2-ylmethoxy)-1H-indazole hydrochloride]"
39.5,28.5,"Fc1ccc2c(c1)c(OC1CCNCC1)nn2-c1ccc(F)c(F)c1 [Example 97, 1-(3,4-Difluoro-phenyl)-5-fluoro-3-(piperidin-4-yloxy)-1H-indazole hydrochloride]"
3860,27.3,"Fc1ccccc1-n1nc(OC[C@@H]2CNCCO2)c2c(F)cccc21 [Example 98, (S)-(+)-4-Fluoro-1-(2-fluorophenyl)-3-(morpholin-2-ylmethoxy)-1H-indazole maleate]"
259,319,"Fc1ccc2c(c1)c(OCC1CCCNC1)nn2-c1ccccn1 (stereo not shown) [Example 99, 5-Fluoro-3-(piperidin-3-ylmethoxy)-1-pyridin-2-yl-1H-indazole hydrochloride]"
304,607,"Clc1ccc2c(c1)c(OC1CCNCC1)nn2-c1ccccc1 [Example 101, 5-Chloro-1-phenyl-3-(piperidin-4-yloxy)-1H-indazole hydrochloride]"
129,71.5,"Fc1ccccc1-n1nc(OC2CCNCC2)c2cc(Cl)ccc21 [Example 102, 5-Chloro-1-(2-fluoro-phenyl)-3-(piperidin-4-yloxy)-1H-indazole hydrochloride]"
293,34.1,"Fc1cccc2c1c(OC1CCNCC1)nn2-c1ccccc1 [Example 103, 4-Fluoro-1-phenyl-3-(piperidin-4-yloxy)-1H-indazole hydrochloride]"
1580,89,"c1ccc(-n2nc(OC[C@H]3CCCNC3)c3cccnc32)cc1 [Example 104, (S)-(−)-1-Phenyl-3-(piperidin-3-ylmethoxy)-1H-pyrazolo[3,4-b]pyridine hydrochloride]"
4240,294,"c1ccc(-n2nc(OC[C@@H]3CNCCO3)c3cccnc32)cc1 [Example 105, (S)-(+)-3-(Morpholin-2-ylmethoxy)-1-phenyl-1H-pyrazolo[3,4-b]pyridine hydrochloride]"
43,5.72,"Fc1ccc2c(c1)c(OC1CCNCC1)nn2-c1c(F)cccc1F [Example 108, 1-(2,6-Difluoro-phenyl)-5-fluoro-3-(piperidin-4-yloxy)-1H-indazole hydrochloride]"
279,46.2,"Fc1cccc(F)c1-n1nc(OC2CCNCC2)c2c(F)cccc21 [Example 109, 1-(2,6-Difluoro-phenyl)-4-fluoro-3-(piperidin-4-yloxy)-1H-indazole hydrochloride]"
422,16.3,"Fc1cccc(F)c1-n1nc(OC[C@H]2CCCNC2)c2c(F)cccc21 [Example 110, (S)-1-(2,6-Difluorophenyl)-4-fluoro-3-(piperidin-3-ylmethoxy)-1H-indazole hydrochloride]"

Compound,Ki [1] [nM],Ki [2] [nM]
"(S)-1-(2,6-Difluoro-phenyl)-3-(morpholin-2-ylmethoxy)-1H-indazole hydrochloride [Example 24]",5430,9.65
(S)-(−)-5-Fluoro-1-(2-fluorophenyl)-3-(piperidin-3-ylmethoxy)-1H-indazole hydrochloride [Example 47],47,13
